Reference: patent US20240285613A1, “TREATMENT FOR AUTOIMMUNE DISEASES” (LDN Pharma Limited, priority 2021, published 2024)

How the values were obtained:
Assay type in all cases: cell-based, human
Details in all cases: 4 h
[1] = tested on: 5-HT receptor 3A, transcript variant 1, mRNA; experiment: Microarray gene expression in CD3+ lymphocytes, probe ILMN_1681492 (HTR3A)
Experimental: (§1) CD3+ lymphocytes were isolated from the blood of haematologically normal volunteers. Cells placed into 25 cm^3 flasks at a concentration of 1×10^6/ml, and left to equilibrate in an incubator with a humidified atmosphere and 5% CO2 in air at 37° C. […] RNA extraction was performed using Trizol according to standard procedures, before being processed for microarray analysis according to the standard methodologies. Briefly, equal amounts of biotinylated cRNA was hybridised to the Illumina human HT 12-v3 arrays for 18 h and subsequently processed according to manufacturer's instructions before scanning on an Illumina BeadArray Reader. The image data were processed using default values in GenomeStudio v2009.1 with imputation of missing data, before loading onto GeneSpring v9.0 for data normalisation and filtering. Data analyses were performed using Excel software, and the ratio of gene expression signals in treated vs. untreated calculated.

5-HT receptor 1E, mRNA = experiment: Microarray gene expression in CD3+ lymphocytes, probe ILMN_1794095 (HTR1E)
Experimental: as §1

5-HT receptor 2B, mRNA = experiment: Microarray gene expression in CD3+ lymphocytes, probe ILMN_1735764 (HTR2B)
Experimental: as §1

[2] = tested on: mRNA for one or more of 5-HT receptor proteins; experiment: Microarray gene expression in CD3+ lymphocytes, summary over 5-HT receptors
Experimental: as §1

[3] = tested on: 5-HT receptor 3A, transcript variant 2, mRNA; experiment: Microarray gene expression in CD3+ lymphocytes, probe ILMN_2371079 (HTR3A)
Experimental: as §1

[4] = tested on: 5-HT receptor 4, transcript variant hb, mRNA; experiment: Microarray gene expression in CD3+ lymphocytes, probe ILMN_1808258 (HTR4)
Experimental: as §1

5-HT receptor 2C, mRNA = experiment: Microarray gene expression in CD3+ lymphocytes, probe ILMN_1801357 (HTR2C)
Experimental: as §1

[5] = tested on: 5-HT receptor 4, transcript variant a, mRNA; experiment: Microarray gene expression in CD3+ lymphocytes, probe ILMN_1676350 (HTR4)
Experimental: as §1

[6] = tested on: 5-HT receptor 3A, transcript variant 2, mRNA; experiment: Microarray gene expression in CD3+ lymphocytes, probe ILMN_1662070 (HTR3A)
Experimental: as §1

[7] = tested on: 5-HT receptor 7 (adenylate cyclase-coupled), transcript variant a, mRNA; experiment: Microarray gene expression in CD3+ lymphocytes, probe ILMN_1744217 (HTR7)
Experimental: as §1

In the case of O=C1CC[C@@]2(O)[C@H]3Cc4ccc(O)c5c4[C@@]2(CCN3CC2CC2)[C@H]1O5 [NTX, 17-cyclopropylmethyl-4.5-epoxy-3,14-dihydroxymorphinan-6-one], the “gene expression signal, HTR3A transcript variant 1” value ([1]; LDN 10 nM) is reported as 94.00, the “gene expression signal, HTR3A transcript variant 1” value ([1]; NTX 10 uM) is reported as 86.75 and the “gene expression signal, HTR1E” value (5-HT receptor 1E, mRNA; LDN 10 nM) is reported as 101.20. For the same compound, the “gene expression signal, HTR1E” value (5-HT receptor 1E, mRNA; NTX 10 uM) was 95.70, the “gene expression signal, HTR2B” value (5-HT receptor 2B, mRNA; LDN 10 nM) was 147.45 and the “gene expression signal, HTR2B” value (5-HT receptor 2B, mRNA; NTX 10 uM) was 177.95. For the same compound, the “levels of mRNA for one or more of 5-HT receptor proteins” value ([2]; higher dose naltrexone (10 uM)) was “increase the levels of mRNA”, the “levels of mRNA for one or more of 5-HT receptor proteins” value ([2]; low dose naltrexone (10 nM)) was “increase the levels of mRNA” and the “gene expression signal, HTR3A transcript variant 2” value ([3]; LDN 10 nM) was 124.70. The “gene expression signal, HTR3A transcript variant 2” value ([3]; NTX 10 uM) was 151.75, the “gene expression signal, HTR4 transcript variant hb” value ([4]; LDN 10 nM) was 93.50 and the “gene expression signal, HTR4 transcript variant hb” value ([4]; NTX 10 uM) was 88.20. For the same compound, the “gene expression signal, HTR2C” value (5-HT receptor 2C, mRNA; LDN 10 nM) was 85.50, the “gene expression signal, HTR2C” value (5-HT receptor 2C, mRNA; NTX 10 uM) was 89.50 and the “gene expression signal, HTR4 transcript variant a” value ([5]; LDN 10 nM) was 100.20. For the same compound, the “gene expression signal, HTR4 transcript variant a” value ([5]; NTX 10 uM) was 96.10, the “gene expression signal, HTR3A transcript variant 2” value ([6]; LDN 10 nM) was 82.35 and the “gene expression signal, HTR3A transcript variant 2” value ([6]; NTX 10 uM) was 80.60. For the same compound, the “gene expression signal, HTR7 transcript variant a” value ([7]; LDN 10 nM) was 80.00 and the “gene expression signal, HTR7 transcript variant a” value ([7]; NTX 10 uM) was 86.60.
